For 82 molecules, carcinogen call results are on record in PubChem BioAssay AID2202555 (NIEHS Division of Translational Toxicology (DTT)).

This data set concerns rat and mouse 2-year carcinogenicity bioassay, tumor evidence. The experiment in a line: Consolidated carcinogenicity assay summary data. An excerpt:
Cancer Evaluation Criteria
The National Toxicology Program describes the results of individual experiments on a chemical agent and notes the strength of the evidence for conclusions regarding each study. […] Other organizations, such as the International Agency for Research on Cancer, assign a strength of evidence for conclusions based on an examination of all available evidence, including animal studies such as those conducted by the NTP, epidemiologic studies, and estimates of exposure. Thus, the actual determination of risk to humans from chemicals found to be carcinogenic in laboratory animals requires a wider analysis that extends beyond the purview of these studies.
Five categories of evidence of carcinogenic activity are used in the Technical Report series to summarize the strength of evidence observed in each experiment: two categories for positive results (clear evidence and some evidence); one category for uncertain findings (equivocal evidence); one category for no observable effects (no evidence); and one category for experiments that cannot be evaluated because of major flaws (inadequate study). These categories of interpretative conclusions were first adopted in June 1983 and then revised on March 1986 for use in the Technical Report series to incorporate more specifically the concept of actual weight of evidence of carcinogenic activity. For each separate experiment (male rats, female rats, male mice, female mice), one of the following five categories is selected to describe the findings. These categories refer to the strength of the experimental evidence and not to potency or mechanism.
For studies showing multiple chemical-related neoplastic effects that if considered individually would be assigned to different levels of evidence categories, the following convention has been adopted to convey completely the study results. In a study with clear evidence of carcinogenic activity at some tissue sites, other responses that alone might be deemed some evidence are indicated as "were also related" to chemical exposure. In studies with clear or some evidence of carcinogenic activity, other responses that alone might be termed equivocal evidence are indicated as "may have been" related to chemical exposure.
When a conclusion statement for a particular experiment is selected, consideration must be given to key factors that would extend the actual boundary of an individual category of evidence. Such consideration should allow for incorporation of scientific experience and current understanding of long-term carcinogenesis studies in laboratory animals, especially for those evaluations that may be on the borderline between two adjacent levels. These considerations should include:
- adequacy of the experimental design and conduct;
- occurrence of common versus uncommon neoplasia;
- progression (or lack thereof) from benign to malignant neoplasia as well as from preneoplastic to neoplastic lesions;
- some benign neoplasms have the capacity to regress but others (of the same morphologic type) progress. At present, it is impossible to identify the difference. Therefore, where progression is known to be a possibility, the most prudent course is to assume that benign neoplasms of those types have the potential to become malignant;
- combining benign and malignant tumor incidences known or thought to represent stages of progression in the same organ or tissue;
- latency in tumor induction;
- multiplicity in site -specific neoplasia;
- supporting information from proliferative lesions (hyperplasia) in the same site of neoplasia or in other experiments (same lesion in another sex or species);
- presence or absence of dose relationships;
- statistical significance of the observed tumor increase;
- concurrent control tumor incidence as well as the historical control rate and variability for a specific neoplasm;
- survival-adjusted analyses and false positive or false negative concerns;
- structure-activity correlations; and
[…]

Setting [1] is: Route (rodents): Interperitoneal.

The structures appear in SMILES notation. Inconclusive results are not listed. Activity calls are given as the source filed them. The rule behind the calls is not given here.

As for `Nc1ccccc1C(=O)OCC=Cc1ccccc1`, the carcinogen call (Route (rodents): Dosed feed) is “active; clear evidence”. Consider `O=C/C=C/O`, for which the carcinogen call (Route (rodents): Gavage) is “active; clear evidence”.

As for `OCC(CO)(CBr)CBr`, the carcinogen call (Route (rodents): Dosed feed) was “active; clear evidence”. For `Nc1cc(Cl)cc(C(=O)O)c1Cl`, the carcinogen call (Route (rodents): Dosed feed) is “active; no evidence”. The same measure, in the same setting: the result for `O=Nc1ccc(Nc2ccccc2)cc1` reads “active; clear evidence”. Take `CCCN(CCC)S(=O)(=O)c1ccc(C(=O)O)cc1`: the carcinogen call (Route (rodents): Gavage) is “active; no evidence”.

Turning to `O=[N+]([O-])c1ccc(Oc2ccc(Cl)cc2Cl)cc1`, the carcinogen call (Route (rodents): Dosed feed) was “active; no evidence”. In the case of `OCc1ccco1`, the carcinogen call (Route (rodents): Inhalation) was “active; some evidence”. `CN(C)c1ccccc1`: where the note is “Route (rodents): Gavage”, the carcinogen call was “active; some evidence”.

As for `Oc1c(Cl)c(Cl)c(Cl)c(Cl)c1Cl`, the carcinogen call (Route (rodents): Dosed feed) was “active; some evidence”. On to `Nc1ccc(O)c([N+](=O)[O-])c1`, for which the carcinogen call (Route (rodents): Dosed feed) is “active; clear evidence”. Still for that read-out and setting: in the case of `Cc1ccc([N+](=O)[O-])cc1` it was “active; equivocal evidence”. The same measure, in the same setting: the result for `COP(=O)(OC)O/C(=C\Cl)c1cc(Cl)c(Cl)cc1Cl` reads “active; no evidence”. For the molecule `C=CC(=O)NCO`, under “Route (rodents): Gavage”, the carcinogen call is “active; no evidence”. Take `ClC=CCCl`: where the note is “Route (rodents): Gavage”, the carcinogen call is “active; clear evidence”. As for `Nc1ccc(Cl)c(N)c1`, the carcinogen call (Route (rodents): Dosed feed) was “active; clear evidence”. For `COP(=O)(OC)OC`, the carcinogen call (Route (rodents): Gavage) was “active; clear evidence”. In the case of `NC(=O)C1CO1` (configuration not stated), the carcinogen call (Route (rodents): Dosed water) is “active; clear evidence”.

Regarding `Clc1ccc(-c2cc(Cl)c(Cl)cc2Cl)cc1Cl`, the carcinogen call (Route (rodents): Gavage) was “active”. Still for that read-out and setting: in the case of `C=CC1CC=CCC1` (configuration not stated) it was “active; inadequate study”. With `CNNCc1ccc(C(=O)NC(C)C)cc1`, under setting [1], the carcinogen call is “active; clear evidence”. On to `CC(C)CCC[C@@H](C)[C@H]1CC[C@H]2[C@@H]3CC=C4C[C@@H](OC(=O)Cc5ccc(N(CCCl)CCCl)cc5)CC[C@]4(C)[C@H]3CC[C@]12C`, for which the carcinogen call (Route (rodents): Gavage) is “active; no evidence”. On the same count and under the same terms, the result for `ClC(Cl)C(Cl)(Cl)Cl` reads “active; equivocal evidence”; that for `O=Cc1ccccc1`, “active; no evidence”. As to `O=C(O)CN(CC(=O)O)CC(=O)O`, under “Route (rodents): Dosed feed”, the carcinogen call was “active; clear evidence”. `Nc1ccc(Cc2ccc(N)cc2)cc1`: the carcinogen call (Route (rodents): Dosed water) was “active; clear evidence”. On to `ClCC(Br)CBr` (configuration not stated), for which the carcinogen call (Route (rodents): Inhalation, Second Route: Gavage) was “active; clear evidence”. `CCNC(=S)NCC`: under “Route (rodents): Dosed feed”, the carcinogen call is “active; clear evidence”. As for `Nc1ncn([C@@H]2O[C@H](CO)[C@@H](O)[C@H]2O)c(=O)n1`, under setting [1], the carcinogen call was “active; inadequate study”. In the case of `COC(=O)[C@H]1[C@H]2C[C@@H]3c4[nH]c5cc(OC)ccc5c4CCN3C[C@H]2C[C@@H](OC(=O)c2cc(OC)c(OC)c(OC)c2)[C@@H]1OC`, the carcinogen call (Route (rodents): Dosed feed) is “active; clear evidence”.

`NC=O`: the carcinogen call (Route (rodents): Gavage) is “active; no evidence”. `N=C1C=CC(=C(c2ccc(N)cc2)c2ccc(N)cc2)C=C1`: the carcinogen call (Route (rodents): Dosed feed) was “active; clear evidence”. In the case of `CCOC(=O)C(O)(c1ccc(Cl)cc1)c1ccc(Cl)cc1`, the carcinogen call (Route (rodents): Dosed feed) is “active; equivocal evidence”. Still for that read-out and setting: the result for `CCn1cc(C(=O)O)c(=O)c2ccc(C)nc21` reads “active; clear evidence”; that for `O=C1C2CC=CCC2C(=O)N1SC(Cl)(Cl)Cl` (configuration not stated), “active; no evidence”. For `Oc1cccc(O)c1O`, the carcinogen call (Route (rodents): Topical) was “active; no evidence”. For `Cc1ccc2c(c1[N+](=O)[O-])C(=O)c1ccccc1C2=O`, the carcinogen call (Route (rodents): Dosed feed) was “active; clear evidence”. Take `N#CC(Br)Br`: the carcinogen call (Route (rodents): Dosed water) is “active; clear evidence”. Consider `Oc1cc(Cl)ccc1Oc1ccc(Cl)cc1Cl`, for which, for the setting “Route (rodents): Topical”, the carcinogen call was “active”. As for `Cc1ccc2c(c1N)C(=O)c1ccccc1C2=O`, the carcinogen call (Route (rodents): Dosed feed) is “active; clear evidence”. `O=P1(NCCCl)OCCCN1CCCl` (configuration not stated): the carcinogen call under setting [1] was “active; no evidence”. `OCC(Br)CBr` (configuration not stated): the carcinogen call (Route (rodents): Topical) was “active; clear evidence”. Consider `c1ccc2ccccc2c1`, for which the carcinogen call (Route (rodents): Inhalation) was “active; clear evidence”. Turning to `Clc1cc2c(cc1Cl)Oc1cc(Cl)c(Cl)cc1O2`, the carcinogen call (Route (rodents): Gavage, Second Route: Topical) is “active; clear evidence”.

For the molecule `Nc1nc(N)nc(N)n1`, the carcinogen call (Route (rodents): Dosed feed) is “active; clear evidence”. For the molecule `Nc1nc(=S)c2ncn([C@H]3C[C@H](O)[C@@H](CO)O3)c2[nH]1`, the carcinogen call under setting [1] is “active; equivocal evidence”. Regarding `CNC(=S)N(C)C`, the carcinogen call (Route (rodents): Dosed feed) was “active; no evidence”. For the molecule `ClCC(Cl)CCl`, the carcinogen call (Route (rodents): Gavage) was “active; clear evidence”. `C=CCOCC1CO1` (configuration not stated): under “Route (rodents): Inhalation”, the carcinogen call was “active; equivocal evidence”. `CC=Cc1ccc(O)c(OC)c1`: the carcinogen call (Route (rodents): Gavage) is “active; equivocal evidence”. In the case of `CCCCC1C(=O)N(c2ccccc2)N(c2ccccc2)C1=O`, the carcinogen call (Route (rodents): Gavage) was “active; equivocal evidence”. On the same count and under the same terms, the result for `C[C@]12CC[C@@H]3c4ccc(OC(=O)Cc5ccc(N(CCCl)CCCl)cc5)cc4CC[C@H]3[C@@H]1CC[C@@H]2OC(=O)Cc1ccc(N(CCCl)CCCl)cc1` reads “active; no evidence”. For the molecule `CCCCC(CC)COP(=O)(OCC(CC)CCCC)OCC(CC)CCCC` (configuration not stated), for the setting “Route (rodents): Gavage”, the carcinogen call was “active; equivocal evidence”. Consider `C=CC(=C)C`, for which, where the note is “Route (rodents): Inhalation”, the carcinogen call was “active; clear evidence”. As to `Cc1cc(C)c(N)cc1C`, the carcinogen call (Route (rodents): Dosed feed) is “active; clear evidence”. For the molecule `CCn1c2ccccc2c2cc(N)ccc21`, the carcinogen call (Route (rodents): Dosed feed) is “active; clear evidence”.

For `ClC(Cl)Cl`, the carcinogen call (Route (rodents): Gavage) is “active; clear evidence”. Regarding `C=CC(N)=O`, the carcinogen call (Route (rodents): Dosed water) was “active; clear evidence”. Consider `CCC1(c2ccccc2)C(=O)NCNC1=O`, for which the carcinogen call (Route (rodents): Dosed feed) was “active; equivocal evidence”. Same read-out and setting: the result for `Nc1nc(N)c2nc(-c3ccccc3)c(N)nc2n1` reads “active; equivocal evidence”.

As for `COC(N)=O`, under “Route (rodents): Gavage”, the carcinogen call was “active; clear evidence”. Still for that read-out and setting: the result for `C=CCN=C=S` reads “active; clear evidence”. Take `OCCN(CCO)CCO`: the carcinogen call (Route (rodents): Topical) is “active; equivocal evidence”. For the molecule `CCCCOC(=O)c1ccccc1C(=O)OCc1ccccc1`, the carcinogen call (Route (rodents): Dosed feed) is “active; some evidence”. On the same count and under the same terms, the result for `CCCCCCCCS(=O)C(C)Cc1ccc2c(c1)OCO2` (configuration not stated) reads “active; no evidence”. Consider `C[N+](=O)[O-]`, for which the carcinogen call (Route (rodents): Inhalation) is “active; no evidence”.

Turning to `Clc1ccc(-c2cc(Cl)c(Cl)c(Cl)c2)cc1Cl`, the carcinogen call (Route (rodents): Gavage) was “active”. With `COc1ccc(C)cc1N`, the carcinogen call (Route (rodents): Dosed feed) was “active; clear evidence”. `Brc1c(Br)c(Br)c(Oc2c(Br)c(Br)c(Br)c(Br)c2Br)c(Br)c1Br`: where the note is “Route (rodents): Dosed feed”, the carcinogen call is “active; some evidence”. As to `C=C1C/C(=C/C)C(=O)O[C@@H]2CCN3CC=C(COC(=O)[C@@]1(O)CO)[C@H]23`, the carcinogen call (Route (rodents): Gavage) was “active; clear evidence”. `CC(Cl)CCl` (configuration not stated): the carcinogen call (Route (rodents): Gavage) is “active; no evidence”. Regarding `CC(C)(C)O`, the carcinogen call (Route (rodents): Dosed water) is “active; some evidence”. As for `[O]=[Cr](=[O])([OH])[O][Cr](=[O])(=[O])[OH]`, the carcinogen call (Route (rodents): Dosed water) is “active; clear evidence”. On to `c1ccncc1`, for which the carcinogen call (Route (rodents): Dosed water) is “active; some evidence”. As to `Cc1ccc(N(C)C)cc1`, where the note is “Route (rodents): Gavage”, the carcinogen call was “active; clear evidence”. Still for that read-out and setting: in the case of `CC1C(=O)C[C@]2(C(C)C)C[C@H]12` (some centres not stated) it was “active; some evidence”. Regarding `Cc1cc(Cl)ccc1N`, the carcinogen call (Route (rodents): Dosed feed) was “active; no evidence”. In the case of `COc1c(Cl)c(Cl)c(Cl)c(Cl)c1Cl`, the carcinogen call (Route (rodents): Gavage) was “active; some evidence”. As to `[Co]`, the carcinogen call (Route (rodents): Inhalation) was “active; clear evidence”. With `CC(O)COC(C)(C)C` (configuration not stated), the carcinogen call (Route (rodents): Inhalation) was “active; equivocal evidence”. For `O=C1c2ccccc2C(=O)c2ccccc21`, the carcinogen call (Route (rodents): Dosed feed) was “active; some evidence”. The same measure, in the same setting: in the case of `Nc1ccc(S(=O)(=O)c2ccc(N)cc2)cc1` it was “active; clear evidence”.
